Molecular target: T1, STK3 (MST2) (Homo sapiens, UniProt Q13188)
T1 construct: purchased Thermo Fisher Scientific (Life Technologies) SelectScreen
Experiment: SelectScreen Z'LYTE
Type: biochemical
Procedure, shortened: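 SelectScreen broad panel; activity (Z'LYTE, Adapta) plus binding formats. ATP: Km app for CSF1R Z'LYTE; 10 for CAMK1 Adapta. Readout = % per kinase.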

T1 sequence (Q13188 whole entry): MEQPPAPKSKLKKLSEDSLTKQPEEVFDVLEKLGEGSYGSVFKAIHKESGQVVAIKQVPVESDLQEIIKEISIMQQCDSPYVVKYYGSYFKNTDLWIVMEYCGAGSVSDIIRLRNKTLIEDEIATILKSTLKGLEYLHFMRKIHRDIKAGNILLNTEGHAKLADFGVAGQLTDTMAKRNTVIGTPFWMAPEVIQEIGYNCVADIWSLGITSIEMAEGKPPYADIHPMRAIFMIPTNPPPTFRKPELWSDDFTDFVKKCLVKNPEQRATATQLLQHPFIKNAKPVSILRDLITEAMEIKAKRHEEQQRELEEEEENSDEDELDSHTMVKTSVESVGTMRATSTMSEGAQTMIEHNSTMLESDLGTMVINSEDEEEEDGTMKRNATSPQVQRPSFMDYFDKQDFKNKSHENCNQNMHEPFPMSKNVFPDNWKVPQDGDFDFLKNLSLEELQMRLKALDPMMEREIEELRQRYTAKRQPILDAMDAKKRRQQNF

SMILES: CN(C(=O)CN1CCOCC1)c1ccc2sc3c(-c4cccc5c(=O)cc(N6CC7CCC(C6)O7)oc45)cccc3c2c1 [NU5455]
- inhibition at 1 µM: -10.3%

Reference: paper PMC6934184, “Selective DNA-PKcs inhibition extends the therapeutic index of localized radiotherapy and chemotherapy” (The Journal of Clinical Investigation, 2019)
